Measured values published in PubChem BioAssay AID2060491 (Molecular Pharmacology Branch, DTP, NCI, 2025).
pIC50: −log10 of the molar value.

System: 857933-349-R-J2-PDC complex spheroids, viability
Experiment: Anticancer human tumor 857933-349-R-J2-PDC patient-derived colon adenocarcinoma cell line growth inhibition [GQUAD]
Conditions: for pIC50: curve of first compound; for viability, T/C: stronger effect = lower value; active = viability on the fitted dose curve at most 10% of control; inactive = the rest
Method in brief: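 Viability of tumor cells grown as complex spheroids with endothelial and stromal cells, exposed to drug combinations. Top concentration at or near clinical Cmax (else 10 microM), diluted in half-log increments.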

[1] = second compound 0.0316 µM, first compound 0.0316 µM
[2] = second compound 0.0316 µM, first compound 0.1 µM
[3] = second compound 0.0316 µM, first compound 0.316 µM
[4] = second compound 0.0316 µM, first compound 1 µM
[5] = second compound 0.0316 µM, first compound 3.16 µM
[6] = second compound 0.0316 µM, first compound 10 µM
[7] = second compound 0.1 µM, first compound 0.0316 µM
[8] = second compound 0.1 µM, first compound 0.1 µM
[9] = second compound 0.1 µM, first compound 0.316 µM
[10] = second compound 0.1 µM, first compound 1 µM
[11] = second compound 0.1 µM, first compound 3.16 µM
[12] = second compound 0.1 µM, first compound 10 µM
[13] = second compound 0.316 µM, first compound 0.0316 µM
[14] = second compound 0.316 µM, first compound 0.1 µM
[15] = second compound 0.316 µM, first compound 0.316 µM
[16] = second compound 0.316 µM, first compound 1 µM
[17] = second compound 0.316 µM, first compound 3.16 µM
[18] = second compound 0.316 µM, first compound 10 µM
[19] = second compound 1 µM, first compound 0.0316 µM
[20] = second compound 1 µM, first compound 0.1 µM
[21] = second compound 1 µM, first compound 0.316 µM
[22] = second compound 1 µM, first compound 1 µM
[23] = second compound 1 µM, first compound 3.16 µM
[24] = second compound 1 µM, first compound 10 µM
[25] = second compound 3.16 µM, first compound 0.0316 µM
[26] = second compound 3.16 µM, first compound 0.1 µM
[27] = second compound 3.16 µM, first compound 0.316 µM
[28] = second compound 3.16 µM, first compound 1 µM
[29] = second compound 3.16 µM, first compound 3.16 µM
[30] = second compound 3.16 µM, first compound 10 µM
[31] = second compound 10 µM, first compound 0.0316 µM
[32] = second compound 10 µM, first compound 0.1 µM
[33] = second compound 10 µM, first compound 0.316 µM
[34] = second compound 10 µM, first compound 1 µM
[35] = second compound 10 µM, first compound 3.16 µM
[36] = second compound 10 µM, first compound 10 µM
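Note: spheroids exposed to compounds for one week before readout.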
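Throughout, for viability, T/C: percent viability relative to vehicle DMSO wells taken as 100%.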

COc1ccc([C@@H](O)c2cc(-c3ncnc4cc(N5CCOCC5)ccc34)c(F)cc2Cl)nn1 + Cc1[nH]c2ccc(F)cc2c1-c1nc2c3cccnc3c3ncccc3c2[nH]1
< 5.00: pIC50 (second compound 0.0316 µM) | pIC50 (second compound 0.316 µM) | pIC50 (second compound 1 µM) | pIC50 (second compound 3.16 µM) | pIC50 (second compound 10 µM)
5.06: pIC50 (second compound 0.1 µM)
inactive: viability, T/C [1] 124% | viability, T/C [2] 98.5% | viability, T/C [3] 99.8% | viability, T/C [4] 82.2% | viability, T/C [5] 69.9% | viability, T/C [6] 51.6% | viability, T/C [7] 107% | viability, T/C [8] 108% | viability, T/C [9] 93.5% | viability, T/C [10] 87.8% | viability, T/C [11] 64.2% | viability, T/C [12] 48.1% | viability, T/C [13] 108% | viability, T/C [14] 91.1% | viability, T/C [15] 99.1% | viability, T/C [16] 90.8% | viability, T/C [17] 71.6% | viability, T/C [18] 58.1% | viability, T/C [19] 102% | viability, T/C [20] 98.8% | viability, T/C [21] 96.3% | viability, T/C [22] 99.4% | viability, T/C [23] 71.8% | viability, T/C [24] 52.7% | viability, T/C [25] 113% | viability, T/C [26] 96.5% | viability, T/C [27] 95.1% | viability, T/C [28] 94% | viability, T/C [29] 66.1% | viability, T/C [30] 52.2% | viability, T/C [31] 105% | viability, T/C [32] 94.1% | viability, T/C [33] 91.6% | viability, T/C [34] 79.9% | viability, T/C [35] 68.6% | viability, T/C [36] 51.9%

COc1cc(C2c3cc4c(cc3C(OC3OC5COC(C)OC5C(O)C3O)C3COC(=O)C23)OCO4)cc(OC)c1O (stereo not drawn) + Cc1cnc(CNC(=O)c2c(=O)c3ccc(N4CCCN(C)CC4)nc3n3c2sc2ccccc23)cn1
6.98: pIC50 (second compound 0.1 µM)
inactive: viability, T/C [1] 66.6% | viability, T/C [2] 52.2% | viability, T/C [3] 43.6% | viability, T/C [4] 47% | viability, T/C [5] 43.6% | viability, T/C [6] 22.9% | viability, T/C [7] 54.1% | viability, T/C [8] 49.4% | viability, T/C [9] 44.5% | viability, T/C [10] 38.2% | viability, T/C [11] 36.2% | viability, T/C [12] 18.4% | viability, T/C [13] 27.8% | viability, T/C [14] 31.1% | viability, T/C [15] 24.8% | viability, T/C [16] 22.8% | viability, T/C [17] 13.7%
6.48: pIC50 (second compound 0.0316 µM)
active: viability, T/C [18] 6.56% | viability, T/C [19] 5.71% | viability, T/C [20] 6.22% | viability, T/C [21] 5.39% | viability, T/C [22] 5.9% | viability, T/C [23] 4.83% | viability, T/C [24] 3.18% | viability, T/C [25] 3.86% | viability, T/C [26] 2.65% | viability, T/C [27] 2.29% | viability, T/C [28] 2.54% | viability, T/C [29] 2.32% | viability, T/C [30] 1.47% | viability, T/C [31] 1.65% | viability, T/C [32] 1.68% | viability, T/C [33] 1.55% | viability, T/C [34] 2.21% | viability, T/C [35] 0.74% | viability, T/C [36] 0.21%
> 7.50: pIC50 (second compound 0.316 µM) | pIC50 (second compound 1 µM) | pIC50 (second compound 3.16 µM) | pIC50 (second compound 10 µM)

CCCS(=O)(=O)Nc1ccc(F)c(C(=O)c2c[nH]c3ncc(-c4ccc(Cl)cc4)cc23)c1F + Cc1cnc(CNC(=O)c2c(=O)c3ccc(N4CCCN(C)CC4)nc3n3c2sc2ccccc23)cn1
> 7.50: pIC50 (second compound 0.316 µM) | pIC50 (second compound 1 µM) | pIC50 (second compound 3.16 µM) | pIC50 (second compound 10 µM)
active: viability, T/C [6] 4.81% | viability, T/C [12] 3.42% | viability, T/C [17] 5.66% | viability, T/C [18] 1.91% | viability, T/C [19] 3.43% | viability, T/C [20] 2.87% | viability, T/C [21] 2.84% | viability, T/C [22] 2.64% | viability, T/C [23] 3.04% | viability, T/C [24] 1.06% | viability, T/C [25] 2.4% | viability, T/C [26] 2.36% | viability, T/C [27] 2.38% | viability, T/C [28] 1.58% | viability, T/C [29] 2.13% | viability, T/C [30] 0.14% | viability, T/C [31] 0.2% | viability, T/C [32] 0.21% | viability, T/C [33] 0.23% | viability, T/C [34] 0.22% | viability, T/C [35] 0.23% | viability, T/C [36] 0.22%
inactive: viability, T/C [1] 85.1% | viability, T/C [2] 88.8% | viability, T/C [3] 77.6% | viability, T/C [4] 83.8% | viability, T/C [5] 86.5% | viability, T/C [7] 56.2% | viability, T/C [8] 58.5% | viability, T/C [9] 52.4% | viability, T/C [10] 48.9% | viability, T/C [11] 47.5% | viability, T/C [13] 24% | viability, T/C [14] 20.3% | viability, T/C [15] 19.5% | viability, T/C [16] 12.1%
5.76: pIC50 (second compound 0.1 µM)
5.28: pIC50 (second compound 0.0316 µM)

C=CC(=O)N1CCN(c2nc(=O)n(-c3c(C)ccnc3C(C)C)c3nc(-c4c(O)cccc4F)c(F)cc23)C(C)C1 (stereo not drawn) + Cc1cnc(CNC(=O)c2c(=O)c3ccc(N4CCCN(C)CC4)nc3n3c2sc2ccccc23)cn1
inactive: viability, T/C [1] 106% | viability, T/C [2] 85.1% | viability, T/C [3] 91.4% | viability, T/C [4] 88.1% | viability, T/C [5] 111% | viability, T/C [6] 79.3% | viability, T/C [7] 59.7% | viability, T/C [8] 69.3% | viability, T/C [9] 64.4% | viability, T/C [10] 73% | viability, T/C [11] 78.2% | viability, T/C [12] 67% | viability, T/C [13] 19.7% | viability, T/C [14] 25.7% | viability, T/C [15] 26.4% | viability, T/C [16] 22.1% | viability, T/C [17] 34.4% | viability, T/C [18] 30.8%
< 5.00: pIC50 (second compound 0.0316 µM) | pIC50 (second compound 0.1 µM)
active: viability, T/C [19] 4.37% | viability, T/C [20] 5.36% | viability, T/C [21] 4.38% | viability, T/C [22] 4.4% | viability, T/C [23] 4.7% | viability, T/C [24] 5.94% | viability, T/C [25] 2.59% | viability, T/C [26] 2.48% | viability, T/C [27] 2.57% | viability, T/C [28] 3.03% | viability, T/C [29] 3.31% | viability, T/C [30] 2.69% | viability, T/C [31] 1.16% | viability, T/C [32] 1.17% | viability, T/C [33] 1.22% | viability, T/C [34] 1.56% | viability, T/C [35] 1.95% | viability, T/C [36] 1.37%
> 7.50: pIC50 (second compound 0.316 µM) | pIC50 (second compound 1 µM) | pIC50 (second compound 3.16 µM) | pIC50 (second compound 10 µM)
